“And” between values parts separate entries of the source, which are not always exact repeats. Equal entries are not always repeated. Inconclusive results and toxic doses are left out.
Tested on: P388 leukemia ip, CD2F1 mice, survival T/C
Experiment: NCI In Vivo Anticancer Drug Screen. Data for tumor model P388 Leukemia (intraperitoneal) in CD2F1 (CDF1) mice
Conditions: endpoint: median survival time, higher = longer survival
Procedure, shortened: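 Mice carrying the transplanted tumor received test compound or vehicle. Survival was recorded in each group, and the value is the treated-group measurement divided by that of the vehicle-treated control group.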

[1] = dose: 50.0 mg/kg/injection, schedule: Q01DX005 (ip), vehicle: saline with Tween-80

OCC1OC(n2cnc3c2NC=NC[C@H]3O)CC1O (stereo partly specified)
T/C (dose: 0.05 mg/kg/injection, schedule: Q03HX024 (ip), vehicle: clinical formulation): 100 % of control | T/C (dose: 0.05 mg/kg/injection, schedule: Q03HX024 (ip), vehicle: water): 99 % of control | T/C (dose: 0.1 mg/kg/injection, schedule: Q03HX024 (ip), vehicle: clinical formulation): 100 % of control | T/C (dose: 0.1 mg/kg/injection, schedule: Q03HX024 (ip), vehicle: water): 100 % of control | T/C (dose: 0.12 mg/kg/injection, schedule: Q01DX009 (ip), vehicle: water): 111 % of control | T/C (dose: 0.13 mg/kg/injection, schedule: Q01DX009 (ip), vehicle: saline): 112 % of control | T/C (dose: 0.2 mg/kg/injection, schedule: Q03HX024 (ip), vehicle: clinical formulation): 100 % of control | T/C (dose: 0.2 mg/kg/injection, schedule: Q03HX024 (ip), vehicle: water): 100 % of control | T/C (dose: 0.25 mg/kg/injection, schedule: Q01DX005 (ip), vehicle: water): 101 % of control and 102 % of control | T/C (dose: 0.25 mg/kg/injection, schedule: Q01DX009 (ip), vehicle: saline): 100 % of control and 119 % of control | T/C (dose: 0.25 mg/kg/injection, schedule: Q01DX009 (ip), vehicle: water): 103 % of control and 111 % of control | T/C (dose: 0.25 mg/kg/injection, schedule: Q04DX002 (ip), vehicle: saline): 99 % of control and 112 % of control | T/C (dose: 0.25 mg/kg/injection, schedule: Q04DX003 (ip), vehicle: saline): 101 % of control | T/C (dose: 0.38 mg/kg/injection, schedule: Q01DX009 (ip), vehicle: saline): 107 % of control | T/C (dose: 0.5 mg/kg/injection, schedule: Q01DX005 (ip), vehicle: water): 99 % of control and 101 % of control | T/C (dose: 0.5 mg/kg/injection, schedule: Q01DX009 (ip), vehicle: saline): 109 % of control and 110 % of control | T/C (dose: 0.5 mg/kg/injection, schedule: Q01DX009 (ip), vehicle: water): 99 % of control and 118 % of control | T/C (dose: 0.5 mg/kg/injection, schedule: Q04DX002 (ip), vehicle: saline): 106 % of control and 109 % of control | T/C (dose: 0.5 mg/kg/injection, schedule: Q04DX003 (ip), vehicle: saline): 101 % of control | T/C (dose: 0.66 mg/kg/injection, schedule: Q01DX009 (ip), vehicle: saline): 92 % of control | T/C (dose: 0.75 mg/kg/injection, schedule: Q01DX009 (ip), vehicle: saline): 104 % of control | T/C (dose: 1.0 mg/kg/injection, schedule: Q01DX005 (ip), vehicle: water): 102 % of control | T/C (dose: 1.0 mg/kg/injection, schedule: Q01DX009 (ip), vehicle: saline): 107 % of control and 94 % of control | T/C (dose: 1.0 mg/kg/injection, schedule: Q01DX009 (ip), vehicle: water): 101 % of control | T/C (dose: 1.5 mg/kg/injection, schedule: Q01DX009 (ip), vehicle: saline): 103 % of control | T/C (dose: 2.0 mg/kg/injection, schedule: Q01DX005 (ip), vehicle: water): 102 % of control | T/C (dose: 2.0 mg/kg/injection, schedule: Q01DX009 (ip), vehicle: saline): 102 % of control | T/C (dose: 2.0 mg/kg/injection, schedule: Q01DX009 (ip), vehicle: water): 86 % of control | T/C (dose: 3.0 mg/kg/injection, schedule: Q01DX009 (ip), vehicle: saline): 107 % of control | T/C (dose: 4.0 mg/kg/injection, schedule: Q01DX005 (ip), vehicle: water): 104 % of control | T/C (dose: 4.0 mg/kg/injection, schedule: Q01DX009 (ip), vehicle: water): 86 % of control

CCCCCCCC(=O)OC(C)C1/C=C/C=C\C(=O)O[C@@H]2C[C@H]3OC4C5OC5(C)CCC4(COC(=O)C4O[C@@]4(C)C(OC(=O)CCCCCCC)CO1)[C@]2(C)[C@]31CO1 (stereo partly specified)
T/C (dose: 1.25 mg/kg/injection, schedule: Q01DX009 (ip), vehicle: Klucel (hydroxypropylcellulose) (HPC)): 102 % of control | T/C (dose: 2.5 mg/kg/injection, schedule: Q01DX009 (ip), vehicle: Klucel (hydroxypropylcellulose) (HPC)): 106 % of control | T/C (dose: 5.0 mg/kg/injection, schedule: Q01DX009 (ip), vehicle: Klucel (hydroxypropylcellulose) (HPC)): 99 % of control and 106 % of control | T/C (dose: 10.0 mg/kg/injection, schedule: Q01DX009 (ip), vehicle: Klucel (hydroxypropylcellulose) (HPC)): 98 % of control and 101 % of control | T/C (dose: 20.0 mg/kg/injection, schedule: Q01DX009 (ip), vehicle: Klucel (hydroxypropylcellulose) (HPC)): 110 % of control | T/C (dose: 40.0 mg/kg/injection, schedule: Q01DX005 (ip), vehicle: Klucel (hydroxypropylcellulose) (HPC)): 90 % of control | T/C (dose: 40.0 mg/kg/injection, schedule: Q01DX009 (ip), vehicle: Klucel (hydroxypropylcellulose) (HPC)): 99 % of control | T/C (dose: 80.0 mg/kg/injection, schedule: Q01DX005 (ip), vehicle: Klucel (hydroxypropylcellulose) (HPC)): 90 % of control | T/C (dose: 150.0 mg/kg/injection, schedule: Q01DX005 (ip), vehicle: Klucel (hydroxypropylcellulose) (HPC)): 91 % of control | T/C (dose: 160.0 mg/kg/injection, schedule: Q01DX005 (ip), vehicle: Klucel (hydroxypropylcellulose) (HPC)): 108 % of control | T/C (dose: 300.0 mg/kg/injection, schedule: Q01DX005 (ip), vehicle: Klucel (hydroxypropylcellulose) (HPC)): 100 % of control

CCOC(=O)/C=C(/CC(=O)OCC)OCC
T/C (dose: 50.0 mg/kg/injection, schedule: Q01DX009 (ip), vehicle: saline): 100 % of control | T/C (dose: 100.0 mg/kg/injection, schedule: Q01DX009 (ip), vehicle: saline): 89 % of control | T/C (dose: 200.0 mg/kg/injection, schedule: Q01DX009 (ip), vehicle: saline): 90 % of control | T/C (dose: 400.0 mg/kg/injection, schedule: Q01DX009 (ip), vehicle: saline): 101 % of control

CN(C)/C(=C(\CBr)C(=O)c1ccc(-c2ccccc2)cc1)c1ccccc1
T/C (dose: 12.5 mg/kg/injection, schedule: Q01DX005 (ip), vehicle: Klucel (hydroxypropylcellulose) (HPC)): 108 % of control | T/C (dose: 25.0 mg/kg/injection, schedule: Q01DX005 (ip), vehicle: Klucel (hydroxypropylcellulose) (HPC)): 105 % of control | T/C (dose: 50.0 mg/kg/injection, schedule: Q01DX005 (ip), vehicle: Klucel (hydroxypropylcellulose) (HPC)): 105 % of control and 107 % of control

O=C(CCC(=O)C1CCCC1=O)Nc1cccc([N+](=O)[O-])c1 (stereo unspecified)
T/C (dose: 60.0 mg/kg/injection, schedule: Q01DX005 (ip), vehicle: saline with Tween-80): 102 % of control | T/C (dose: 120.0 mg/kg/injection, schedule: Q01DX005 (ip), vehicle: saline with Tween-80): 102 % of control | T/C (dose: 240.0 mg/kg/injection, schedule: Q01DX005 (ip), vehicle: saline with Tween-80): 101 % of control

CC1(C)N=C(c2ccccc2)C(c2ccccc2)=NC1(C)C
T/C (dose: 100.0 mg/kg/injection, schedule: Q04DX002 (ip), vehicle: saline): 101 % of control | T/C (dose: 200.0 mg/kg/injection, schedule: Q04DX002 (ip), vehicle: saline): 98 % of control | T/C (dose: 400.0 mg/kg/injection, schedule: Q04DX002 (ip), vehicle: saline): 104 % of control

CCCCCCCCCCSc1n[nH]c(=S)s1
T/C [1]: 100 % of control | T/C (dose: 100.0 mg/kg/injection, schedule: Q01DX005 (ip), vehicle: saline with Tween-80): 100 % of control | T/C (dose: 200.0 mg/kg/injection, schedule: Q01DX005 (ip), vehicle: saline with Tween-80): 105 % of control

CC(C)(C)NC1=NCCNC(c2ccccc2)=C1
T/C (dose: 6.25 mg/kg/injection, schedule: Q01DX005 (ip), vehicle: saline): 98 % of control | T/C (dose: 12.5 mg/kg/injection, schedule: Q01DX005 (ip), vehicle: saline): 100 % of control | T/C (dose: 25.0 mg/kg/injection, schedule: Q01DX005 (ip), vehicle: saline): 92 % of control

O=C(O)C(=O)O.O=C([O-])C(=O)[O-].O=C([O-])C(=O)[O-].[NH-]CC[NH-].[NH-]CC[NH-].[NH-]CC[NH-].[Ru+4].[Ru+5]
T/C (dose: 25.0 mg/kg/injection, schedule: Q04DX003 (ip), vehicle: water): 117 % of control | T/C (dose: 50.0 mg/kg/injection, schedule: Q04DX003 (ip), vehicle: water): 151 % of control

C[N+](C)(C)/C=C/c1ccc([N+](=O)[O-])o1
T/C (dose: 50.0 mg/kg/injection, schedule: Q01DX009 (ip), vehicle: suspension in saline): 100 % of control | T/C (dose: 100.0 mg/kg/injection, schedule: Q01DX009 (ip), vehicle: suspension in saline): 96 % of control

CC1CC(c2ccccc2)(c2ccccc2)CN1C (stereo unspecified)
T/C (dose: 12.5 mg/kg/injection, schedule: Q01DX005 (ip), vehicle: saline with Tween-80): 105 % of control | T/C (dose: 25.0 mg/kg/injection, schedule: Q01DX005 (ip), vehicle: saline with Tween-80): 102 % of control | T/C [1]: 102 % of control and 103 % of control

NC(=S)c1cccc(/C=N/Nc2ccccn2)c1
T/C (dose: 100.0 mg/kg/injection, schedule: Q01DX001 (ip), vehicle: saline): 96 % of control | T/C (dose: 200.0 mg/kg/injection, schedule: Q01DX001 (ip), vehicle: saline): 94 % of control | T/C (dose: 400.0 mg/kg/injection, schedule: Q01DX001 (ip), vehicle: saline): 96 % of control
